Patent publication US4419351A, “Platinum-dioxopyrimidine complexes” (priority 1978, dated 1983)
Where two headings read alike, the source gives them in different places.

Tests used:
[1] = test system: Mice Kidneys (proximal convoluted tubules); parameters: species or system female Swiss White mice; details: mouse, in vivo
Source text: The protocols for these tests were as follows: Each group contained six female Swiss White mice; the tumored animals were given a transplant of a solid Sarcoma-180 tumor on day 0 and treatment was initiated on day 1; the animals were sacrificed on day 10 and the kidneys removed and prepared for histological evaluation; control groups were non-tumored, non-treated animals, and tumored, non-treated animals. Multiple sections of each kidney were examined. […] The saturation concentration cannot be specified other than an estimate of less than 1 mg/100 ml. A very brief summary of the results are compiled in Table 8. The histopathologic degenerative changes are dose dependent in all cases.

Ehrlich Ascites Tumor = assay: survival times of mice bearing the Ehrlich ascites tumor (Table 6); assay type: in vivo; details: 7 mg/kg; for Mean Survival Time (+ S.D.): single i.p. day 3
Source text: (§1) Tables 4-7, respectively, tabulate the results achieved when employing the complexes of the invention against the L1210, MCDV 12, (Rauscher Leukemia, virus-induced), Ehrlich Ascites and the ADJ PC6A (myeloma) tumors.
^a 6 mice/group; each mouse received 10^7 ascites tumor cells on
day 0; treatment was as a single i. p. injection on day 3.

[2] = test system: ascites Sarcoma-180 tumor; assay: chemotherapeutic activity vs ascites Sarcoma-180 tumor, single i.p. injection on day 1 (Table 2 survey); assay type: in vivo, Swiss White mice; details: for Dose of Best % ILS / Best % ILS (increase in lifespan) / # of cures / Toxic Level: carrier saline; for Dose of Best % ILS / Best % ILS (increase in lifespan) / Toxic Level: single i.p. day 1; for Best % ILS (increase in lifespan): max 100%; for Toxic Level: 2 or more of 6 animals died within 8 days
Procedure: The chemotherapeutic activities of the "Platinum Blue" complexes were determined using the ascites Sarcoma-180 tumor in Swiss White mice. The protocols for these tests were as follows: Random bred female Swiss White mice (Spartan Laboratory, Williamston, Mich.) of 18-20 grams weight were randomized in groups of six. The ascites cells were removed from the peritoneal cavities of animals with approximately 10 day old ascites tumors. The cells were washed several times with 0.85% saline and spun down each time in a refrigerated centrifuge for 3-5 minutes at 750 r.p.m. After the blood was removed from the cells, they were diluted with 0.85% saline solution and counted in a hemocytometer. A final dilution of 2×10^7 cells/ml. in saline was made. Each animal received 0.2 ml. of this suspension (4×10^6 cells/animals). This was injected intraperitoneally on day 0 of each test. Two groups (12 animals) were kept as negative controls, and the test was terminated at twice the mean day of death of the negative controls. […] All test compounds were injected i.p. on day one as a 0.5 ml. volume of the compound in a carrier of water, physiologic saline or arachis oil (peanut oil). Soluble compounds were always tested in appropriate solutions, the insoluble ones as a slurry. The slurry was sonicated for periods of up to 10 minutes to insure uniformity of dispersion just prior to injections. […] Retests were performed if a sufficient level of drug toxicity at the highest dose was not reached. Animals still alive at the completion of the tests were considered to have died on the day of evaluation. Animals showing no abdominal distention (by palpation, or visibly) on this day were considered cured.
The compounds tested were usually freshly prepared and purified. The compounds kept for further testing were stored in a vacuum dessicator in a dark refrigerator to prevent deterioration. […] Toxic levels are considered to be that concentration where 2 or more of the 6 animals at the dose died within 8 days of injection.
The letter A indicates the "blue" or first isolated precipitate, the letter B, the "green" or second precipitate.

[3] = test system: MCDV 12 (Rauscher Leukemia, Virus Induced); assay: effects on MCDV 12 (Rauscher Leukemia, virus induced) (Table 5); assay type: in vivo, BALB/C Mice; details: for Survivors: at 200% ILS
Source text: as §1
^a All experiments were terminated arbitrarily at 200% ILS and
survivors tabulated at that time. All therapy was started on third day
after tumor transplant. Untreated tumor controls died 10-11 days after
transplant. In some instances, efforts to reproduce above results have
shown considerable variability.

ADJ/PC6A Tumor = assay: effects on ADJ/PC6A tumor (Table 7); assay type: in vivo, Female, C^- Mice; details: i.p., single dose, 24 days after tumor implant
[4] = test system: Escherichia coli-wild type; assay: anti-microbial activity, growth in test tube cultures (Table 9); assay type: cell-based
Procedure: The following procedure was utilized to test the anti-microbal activity of the platinum complexes. The tests were performed with Escherichia coli-wild type, growing in test tube cultures. Using standardized techniques, growth in the medium was examined after the incorporation of the various test chemicals, using the increase in the optical density of the medium as against time. The bacteria were also periodically examined under a phase contrast microscope for evidence of elongation (filmentation).

[5] = test system: ascites Sarcoma-180 tumor; assay: schedule dependency tests of antitumor activity (Table 3); assay type: in vivo, Swiss White mice; details: for # of cures / Best % ILS / Dose of Best % ILS: saline
Procedure: The chemotherapeutic activities of the "Platinum Blue" complexes were determined using the ascites Sarcoma-180 tumor in Swiss White mice. The protocols for these tests were as follows: Random bred female Swiss White mice (Spartan Laboratory, Williamston, Mich.) of 18-20 grams weight were randomized in groups of six. The ascites cells were removed from the peritoneal cavities of animals with approximately 10 day old ascites tumors. The cells were washed several times with 0.85% saline and spun down each time in a refrigerated centrifuge for 3-5 minutes at 750 r.p.m. After the blood was removed from the cells, they were diluted with 0.85% saline solution and counted in a hemocytometer. A final dilution of 2×10^7 cells/ml. in saline was made. Each animal received 0.2 ml. of this suspension (4×10^6 cells/animals). This was injected intraperitoneally on day 0 of each test. Two groups (12 animals) were kept as negative controls, and the test was terminated at twice the mean day of death of the negative controls. […] Soluble compounds were always tested in appropriate solutions, the insoluble ones as a slurry. The slurry was sonicated for periods of up to 10 minutes to insure uniformity of dispersion just prior to injections. […] Retests were performed if a sufficient level of drug toxicity at the highest dose was not reached. Animals still alive at the completion of the tests were considered to have died on the day of evaluation. Animals showing no abdominal distention (by palpation, or visibly) on this day were considered cured.

L1210 Tumor = assay: effects on L1210 tumor (Table 4); assay type: in vivo, BDF Mice; details: for Survivors: at 200% ILS
Source text: as §1
^a All experiments were terminated arbitrarily at 200% ILS and any
survivors were tabulated at that time. All therapy was started on the
third day after tumor transplant. Untreated tumor controls died 10-11 day
after transplant. In some instances efforts to reproduce above results
have shown considerable variability.

## [Cl][Pt+2][Cl].[NH-]C1CCCC1.[NH-]C1CCCC1 [cis-dichloro(bis)cyclopentylamineplatinum(II)]
[1]
  histopathologic degenerative changes at higher dose levels: generalized vacuolar (hydropic) degeneration of the proximal convoluted tubules
other
  saturation concentration in saline: less than 1 mg/100 ml

## N.N.[Cl][Pt][Cl] [cis-dichlorodiammineplatinum(II)]
[1]
  histopathologic degenerative changes at higher dose levels: generalized vacuolar (hydropic) degeneration of the proximal convoluted tubules
[1]; 0.5 mg/kg
  Observed Renal Histopathological Changes: normal
[1]; 1 mg/kg
  Observed Renal Histopathological Changes: normal
[1]; 2 mg/kg
  Observed Renal Histopathological Changes: mild degenerative changes (cloudy swelling)
[1]; 3 mg/kg
  Observed Renal Histopathological Changes: mild degenerative changes (cloudy swelling)
[1]; 7 mg/kg
  Observed Renal Histopathological Changes: extensive degenerative changes (hydropic degeneration)
Ehrlich Ascites Tumor; first experiment
  % Increase in Mean Survival Time: 307%
Ehrlich Ascites Tumor; first experiment (control 8.3 days)
  Mean Survival Time (+ S.D.): 33.8 ± 16.9 days
Ehrlich Ascites Tumor; first experiment, 6 mice/group
  animals that survived > 60 days: 2 animals
Ehrlich Ascites Tumor; second experiment
  % Increase in Mean Survival Time: 194%
Ehrlich Ascites Tumor; second experiment (control 10.1 days)
  Mean Survival Time (+ S.D.): 29.7 ± 4.2 days
[2]
  Dose of Best % ILS: 7 mg/kg
  Best % ILS (increase in lifespan): 49 (S.D ± 2.82) %
[2]; positive control, of 12 animals
  # of cures: 1
[3]; 5 mg/kg × 1
  % ILS: 146%
  Survivors: 2/3
[3]; 8 mg/kg × 1
  % ILS: 62%
  Survivors: 0/2
[3]; 16 mg/kg × 1
  % ILS: -15%
  Survivors: 0/3
ADJ/PC6A Tumor
  ID 90 (90% Inhibition): 1.6 mg/kg
[4]; 7 ppm, 1:45 p.m., first run
  Optical Density of Bacterial Cultures: .74
[4]; 7 ppm, 2:45 p.m., first run
  Optical Density of Bacterial Cultures: .78
[4]; 7 ppm, 9:30 a.m., first run
  Optical Density of Bacterial Cultures: .19
[4]; 7 ppm, 10:45 a.m., first run
  Optical Density of Bacterial Cultures: .31
[4]; 7 ppm, 11:45 a.m., first run
  Optical Density of Bacterial Cultures: .44
[4]; 7 ppm, 12:45 p.m., first run
  Optical Density of Bacterial Cultures: .62
[4]; 10 ppm, 1:00 p.m., second run
  Optical Density of Bacterial Cultures: .49
[4]; 10 ppm, 2:00 p.m., second run
  Optical Density of Bacterial Cultures: .55
[4]; 10 ppm, 3:20 p.m., second run
  Optical Density of Bacterial Cultures: .60
[4]; 10 ppm, 9:30 a.m., second run
  Optical Density of Bacterial Cultures: .12
[4]; 10 ppm, 11:00 a.m., second run
  Optical Density of Bacterial Cultures: .26
[4]; 10 ppm, 12:00 p.m., second run
  Optical Density of Bacterial Cultures: .37
[5]; day 1, 1 injection
  # of cures: 1
  Best % ILS: 42 (S.D. ± 3.1) %
  Dose of Best % ILS: 7 mg/kg
[5]; every 5th day, 5 injections
  Best % ILS: 83%
  Dose of Best % ILS: 5 mg/kg
[5]; every 5th day, 5 injections, 6 animals per test
  # of cures: 3
[5]; every 3 hrs., 8 injections
  Best % ILS: 86%
  Dose of Best % ILS: 1 mg/kg
[5]; every 3 hrs., 8 injections, 6 animals per test
  # of cures: 5
[5]; every day, 5 injections, 3 mg/kg
  animals died within 9 days of start (remainder cured): Three
[5]; every day, 5 injections
  Best % ILS: 19%
  Dose of Best % ILS: 3 mg/kg
[5]; every day, 5 injections, 6 animals per test
  # of cures: 3

## CCOC(=O)c1c[nH]c(=O)[nH]c1=O [5-carbethoxyuracil Class IA]
[2]; 6 animals per test
  # of cures: 0
[2]
  Dose of Best % ILS: 200 mg/kg
  Toxic Level: 200 mg/kg
  Best % ILS (increase in lifespan): 56%
ADJ/PC6A Tumor
  ID 90 (90% Inhibition): 250 mg/kg
  LD50: 670 mg/kg

## CC1CNC(=O)NC1=O (stereo not drawn) [5,6-dihydrothymine Class IA]
L1210 Tumor; 30.63 mg/kg q3 hr × 8
  % ILS: 30%
  Survivors: 0/3
L1210 Tumor; 50 mg/kg qid × 5
  % ILS: 36%
  Survivors: 0/3
L1210 Tumor; 61.25 mg/kg q3 hr × 8
  % ILS: 0%
  Survivors: 0/3
L1210 Tumor; 100 mg/kg qid × 5
  % ILS: 45%
  Survivors: 0/3
[2]; 6 animals per test
  # of cures: 2
[2]
  Dose of Best % ILS: 200 mg/kg
  Toxic Level: 400 mg/kg
  Best % ILS (increase in lifespan): 87%
[3]; 30.63 mg/kg q3 hr × 8
  % ILS: 75%
  Survivors: 1/3
[3]; 50 mg/kg qid × 5
  % ILS: 157%
  Survivors: 2/3
[3]; 61.25 mg/kg q3 hr × 6
  % ILS: 121%
  Survivors: 2/3
[3]; 100 mg/kg qid × 5
  % ILS: 0%
  Survivors: 0/3
ADJ/PC6A Tumor
  ID 90 (90% Inhibition): 25 mg/kg
  LD50: 135 mg/kg

## O=c1cc(Cl)[nH]c(=O)[nH]1 [6-chlorouracil Class IA]
[2]; 6 animals per test
  # of cures: 3
[2]
  Dose of Best % ILS: 200 mg/kg
  Toxic Level: > 200 mg/kg
  Best % ILS (increase in lifespan): 88%
ADJ/PC6A Tumor
  ID 90 (90% Inhibition): 190 mg/kg
  LD50: 200 mg/kg

## O=c1[nH]cc(CO)c(=O)[nH]1 [5-hydroxymethyluracil Class IA]
[2]; 6 animals per test
  # of cures: 2
[2]
  Dose of Best % ILS: 100 mg/kg
  Toxic Level: 200 mg/kg
  Best % ILS (increase in lifespan): 98%
ADJ/PC6A Tumor
  ID 90 (90% Inhibition): 42 mg/kg
  LD50: 40 mg/kg

## CC#N.CC#N.[Cl][Pt][Cl] [Pt(CH3 CN)2 Cl2, reference compound]
[2]; 6 animals per test
  # of cures: 1
[2]
  Dose of Best % ILS: 25 mg/kg
  Toxic Level: 50 mg/kg
  Best % ILS (increase in lifespan): 83%
[2]; in words
  gross hepatic damage: exceptions
